Test results as given in patent US8158829B2, “Organic sulfur compound and its use for controlling harmful arthropod” (Sumitomo Chemical Company, Limited, priority 2007, dated 2012).

Test system: Blattella germanica
Assay: Test Example 3: filter paper with sucrose bait, Blattella germanica male imagoes
Format: in vivo
Details: 500 ppm, 0.7 ml on filter paper; 2 male imagoes; after 6 days
Procedure: Preparations of the present compounds (2), (3), (5) and (6) obtained according to Formulation Example 11 were diluted so that the active ingredient concentration was 500 ppm to obtain test solutions.
A filter paper having a diameter of 5.5 cm was spread on the bottom of a polyethylene cup having a diameter of 5.5 cm and 0.7 ml of the test solution was added dropwise onto the filter paper. As a bait 30 mg of sucrose was uniformly placed on the filter paper. Into the polyethylene cup, 2 male imagoes of Blattella germanica were released and the cup was sealed with a lid. After 6 days, the number of surviving Blattella germanica was examined and the death rate of the pest was calculated.

SMILES | death rate of the pest [%]
COC(=O)C(Cl)(CCC(F)(Cl)C(F)(F)Cl)S(=O)(=O)CCC(F)(F)F (stereo not shown) [present compound (2), methyl 2,5,6-trichloro-5,6,6-trifluoro-2-(3,3,3-trifluoropropylsulfonyl)hexanoate] | 100
NC(=O)C(Cl)(CCC(F)(Cl)C(F)(F)Cl)S(=O)(=O)CCC(F)(F)F (stereo not shown) [present compound (3), 2,5,6-trichloro-5,6,6-trifluoro-2-(3,3,3-trifluoropropylsulfonyl)hexanamide] | 100
COC(=O)C(Cl)(CCC(F)(F)C(F)(F)Br)S(=O)(=O)CCC(F)(F)F (stereo not shown) [present compound (5), methyl 6-bromo-2-chloro-5,5,6,6-tetrafluoro-2-(3,3,3-trifluoropropylsulfonyl)hexanoate] | 100
NC(=O)C(Cl)(CCC(F)(F)C(F)(F)Br)S(=O)(=O)CCC(F)(F)F (stereo not shown) [present compound (6), 6-bromo-2-chloro-5,5,6,6-tetrafluoro-2-(3,3,3-trifluoropropylsulfonyl)hexanamide] | 100
